Results taken from ChEMBL document CHEMBL1201862, “PubChem BioAssay data set” (2004).
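Briefly, cells in 96-well plates were exposed to five compound concentrations for 48 h, and endpoints were estimated by linear interpolation. Here, GI50 denotes the concentration required for 50% inhibition of growth.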 Activity calls are given as the source filed them. Cut-off read from the data, not from the text of the source: active = GI50 up to about 1.1 µM and inactive = higher.

Key:
Assay in all cases: growth of human tumour cells (NCI), 48 h
[1] = system: KM12
[2] = system: CCRF-CEM
[3] = system: HOP-92
[4] = system: HCC 2998
[5] = system: SK-MEL-28
[6] = system: TK-10
[7] = system: HOP-62
[8] = system: RXF 393
[9] = system: A498
[10] = system: SN12C
[11] = system: HCT-116
[12] = system: NCI/ADR-RES
[13] = system: K562
[14] = system: OVCAR-8
[15] = system: SNB-75
[16] = system: RPMI-8226
[17] = system: OVCAR-4
[18] = system: SF-268
[19] = system: MOLT-4
[20] = system: SR
[21] = system: PC-3
[22] = system: Hs-578T
[23] = system: M14
[24] = system: A549
[25] = system: OVCAR-3
[26] = system: MDA-N
[27] = system: IGROV-1
[28] = system: SNB-19
[29] = system: BT-549
[30] = system: UO-31
[31] = system: HL-60
[32] = system: U-251
[33] = system: SK-MEL-5
[34] = system: HCT-15
[35] = system: NCI-H226
[36] = system: MDA-MB-435
[37] = system: SF-539
[38] = system: EKVX
[39] = system: LOX IMVI
[40] = system: MDA-MB-231
[41] = system: OVCAR-5
[42] = system: UACC-257
[43] = system: SF-295
[44] = system: ACHN
[45] = system: T47D
[46] = system: COLO 205
[47] = system: DU-145
[48] = system: NCI-H460
[49] = system: CAKI-1
[50] = system: NCI-H522
[51] = system: SW-620
[52] = system: HT-29
[53] = system: 786-0
[54] = system: NCI-H23
[55] = system: MCF7
[56] = system: Malme-3M

## CO[C@@H]1C[C@H]2[C@@H]3CC[C@H]([C@@H](C)COC(C)=O)[C@@]3(C)CC[C@@H]2[C@@]2(C)CC[C@H]3C[C@]312
[1]
  GI50: 11.1 µM (inactive)
[2]
  GI50: 14.9 µM (inactive)
[3]
  GI50: 19.9 µM (inactive)
[4]
  GI50: 15.1 µM (inactive)
[5]
  GI50: 17.1 µM (inactive)
[6]
  GI50: > 10 µM (inactive)
[7]
  GI50: 17.7 µM (inactive)
[8]
  GI50: 17.7 µM (inactive)
[9]
  GI50: 20 µM (inactive)
[10]
  GI50: 16.5 µM (inactive)
[11]
  GI50: 10.2 µM (inactive)
[12]
  GI50: 14.1 µM (inactive)
[13]
  GI50: 10.2 µM (inactive)
[14]
  GI50: 12.2 µM (inactive)
[15]
  GI50: 17.9 µM (inactive)
[16]
  GI50: 8.67 µM (inactive)
[17]
  GI50: 22 µM (inactive)
[18]
  GI50: 17.9 µM (inactive)
[19]
  GI50: 15.3 µM (inactive)
[20]
  GI50: 10 µM (inactive)
[21]
  GI50: 15.2 µM (inactive)
[22]
  GI50: 18.5 µM (inactive)
[23]
  GI50: 16.9 µM (inactive)
[24]
  GI50: 15.9 µM (inactive)
[25]
  GI50: 14.6 µM (inactive)
[26]
  GI50: 16.9 µM (inactive)
[27]
  GI50: 15.5 µM (inactive)
[28]
  GI50: 16.9 µM (inactive)
[29]
  GI50: 14.2 µM (inactive)
[30]
  GI50: 18.5 µM (inactive)
[31]
  GI50: 3.89 µM (inactive)
[32]
  GI50: 13.1 µM (inactive)
[33]
  GI50: 3.61 µM (inactive)
[34]
  GI50: 13.3 µM
[35]
  GI50: 17.9 µM (inactive)
[36]
  GI50: 15.1 µM (inactive)
[37]
  GI50: 17.5 µM (inactive)
[38]
  GI50: 14.5 µM (inactive)
[39]
  GI50: 11.4 µM (inactive)
[40]
  GI50: 11.9 µM (inactive)
[41]
  GI50: 11.5 µM (inactive)
[42]
  GI50: 11.6 µM (inactive)
[43]
  GI50: 15.1 µM (inactive)
[44]
  GI50: 16.6 µM (inactive)
[45]
  GI50: 13.2 µM (inactive)
[46]
  GI50: 0.879 µM (active)
[47]
  GI50: 14 µM (inactive)
[48]
  GI50: 10.1 µM (inactive)
[49]
  GI50: 9.12 µM (inactive)
[50]
  GI50: 16.2 µM (inactive)
[51]
  GI50: 11.8 µM (inactive)
[52]
  GI50: 6.92 µM (inactive)
[53]
  GI50: 16.5 µM (inactive)
[54]
  GI50: 12.8 µM (inactive)
[55]
  GI50: 9.48 µM (inactive)
[56]
  GI50: 16 µM (inactive)
